{"source": "patent US20190142810A1", "about": "“MITOCHONDRIAL INHIBITORS FOR THE TREATMENT OF PROLIFERATION DISORDERS” (Basilea Pharmaceutica International AG, priority 2016, published 2019)", "data": [{"test_system": "HeLa galactose cells", "experiment": "Cell growth and proliferation assay of HeLa galactose cells (crystal violet)", "assay_type": "cell-based", "details": "72 hours incubation, crystal violet staining, absorbance at 590 nm", "protocol": "(§1) The cervical tumor cell line HeLa (ATCC, CCL-2) was cultivated in DMEM medium (Invitrogen cat. no. 11971, 4.5 g/L high glucose) containing 10% fetal calf serum (Sigma cat. no. F9665) and 1% Penicillin/Streptomycin (Sigma cat. no. P0781) at 37° C. in 5% CO2. HeLa galactose cells (i.e. HeLa cells that grow in high concentrations of galactose) were generated from HeLa glucose cells (i.e. HeLa cells that grow in high concentrations of glucose) by gradually changing the amount of glucose in the media to zero glucose in the presence of galactose as a sugar source (50% galactose/50% glucose media for one week, then 75% galactose/25% glucose media for one week, to 100% galactose media in the third week). Galactose media (Invitrogen cat. no. 11966) was supplemented with 10 mM galactose (Sigma cat. no. G5388).\n(§2) Cell Growth and Proliferation Assay of HeLa Galactose and Glucose Cells\n(§3) HeLa galactose cells and HeLa glucose cells were seeded in 96 well plates (TPP, cat. no 92696) at 2000 and 1500 cells/well, respectively, in 100 μL of complete medium. After overnight incubation the cells were incubated for 72 hours in complete medium containing 0.001% DMSO or compounds (final concentration of DMSO 0.001%). After the medium was removed, cells were fixed and stained by adding 50 μL crystal violet staining (0.2% crystal violet (Sigma-Aldrich cat. no. C0775) in 50% methanol) per well. The plates were incubated for 1 hour at room temperature. Subsequently the stain was decanted and plates were washed 4 times with de-mineralized water. Plates were air-dried for 2 hours. The stain was dissolved by adding 100 μL buffer (0.1 M Tris pH 7.5, 0.2% SDS, 20% ethanol) per well and shaking the plates. Absorbance at 590 nm was measured using a SpectraMax® 250 plate reader (Molecular Devices). Antiproliferative/growth inhibition IC50s were calculated from concentration-response curves using GraphPad Prism software.", "units": {"IC50": "µM"}, "values": [{"compound": "COCC1CN(C(=O)Nc2nc(C)ns2)CC/C1=C/c1ccc(Cl)cc1F", "note": "(stereo not drawn) [Example 130, (4Z)-4-[(4-chloro-2-fluoro-phenyl)methylene]-3-(methoxymethyl)-N-(3-methyl-1,2,4-thiadiazol-5-yl)piperidine-1-carboxamide]", "IC50": 0.355}, {"compound": "COCC1CN(C(=O)Nc2nc(C)ns2)CC/C1=C/c1ccc(Cl)cc1F", "note": "(stereo not drawn) [Example 133]", "IC50": 0.1}]}, {"test_system": "HeLa galactose cells", "experiment": "Cell growth and proliferation assay of HeLa galactose cells (crystal violet)", "assay_type": "cell-based", "details": "Homo sapiens, HeLa, 72 h, 72 hours incubation, crystal violet staining, absorbance at 590 nm", "protocol": "as §1, §2, §3", "units": {"IC50": "µM"}, "values": [{"compound": "Cc1cc(NC(=O)N2CCC(Cc3ccc(Cl)cc3F)CC2)cnn1", "note": "[Example 165]", "IC50": 0.383}, {"compound": "Cc1nsc(NC(=O)N2CCC(=Cc3ccc(N(C)CCCCN)cc3F)CC2)n1", "note": "[Example 163]", "IC50": 0.293}, {"compound": "Cc1nsc(NC(=O)N2CCCC(Cc3ccc(N(C)C)cc3F)CC2)n1", "note": "(stereo not drawn) [Example 126]", "IC50": 0.068}, {"compound": "Cc1cc(NC(=O)N2CCC(C(=O)c3c(F)cc(C#N)cc3F)CC2)ccn1", "note": "[Example 174]", "IC50": 0.16}, {"compound": "Cc1nsc(NC(=O)N2CCC(=Cc3c(F)cc(NC4CCOC4)cc3F)CC2)n1", "note": "(stereo not drawn) [Example 150]", "IC50": 0.124}, {"compound": "Cc1nsc(NC(=O)N2CCC(=Cc3ccc(Cl)cc3F)C(F)C2)n1", "note": "(stereo not drawn) [Example 106]", "IC50": 0.467}, {"compound": "Cc1nsc(NC(=O)N2CCC(Cc3ccc(OCC(C)C)cc3F)CC2)n1", "note": "[Example 31]", "IC50": 0.795}, {"compound": "Cc1nsc(NC(=O)N2CCC(C(C)c3ccc(Cl)cc3F)CC2)n1", "note": "(stereo not drawn) [Example 105]", "IC50": 0.482}, {"compound": "Cc1nsc(NC(=O)N2CCC(Cc3c(F)cc(Cl)cc3F)CC2(C)C)n1", "note": "(stereo not drawn) [Example 167]", "IC50": 0.5}, {"compound": "Cc1nsc(NC(=O)N2CCC(Cc3ccc(Cl)cn3)CC2)n1", "note": "[Example 61]", "IC50": 0.516}, {"compound": "Cc1cc(NC(=O)N2CCC(=Cc3ccc(Cl)cc3F)CC2)ncn1", "note": "[Example 136]", "IC50": 0.081}, {"compound": "Cc1nsc(NC(=O)N2CCC(=Cc3ccc(CN(C)CCO)cc3F)CC2)n1", "note": "[Example 90, 4-[[2-fluoro-4-[[2-hydroxyethyl(methyl)amino]methyl]phenyl]methylene]-N-(3-methyl-1,2,4-thiadiazol-5-yl)piperidine-1-carboxamide]", "IC50": 0.693}, {"compound": "COC(=O)c1ccc(CC2CCN(C(=O)Nc3nc(C)ns3)CC2)c(F)c1", "note": "[Example 36]", "IC50": 0.54}, {"compound": "Nc1cc(NC(=O)N2CCC(=Cc3ccc(Cl)cc3F)CC2)ccn1", "note": "[Example 131]", "IC50": 0.264}, {"compound": "COCCC1CN(C(=O)Nc2nc(C)ns2)CC/C1=C/c1ccc(Cl)cc1F", "note": "(stereo not drawn) [Example 134, (4Z)-4-[(4-chloro-2-fluoro-phenyl)methylene]-3-(2-methoxyethyl)-N-(3-methyl-1,2,4-thiadiazol-5-yl)piperidine-1-carboxamide]", "IC50": 0.449}, {"compound": "CNc1nsc(NC(=O)N2CCC(Cc3ccc(Cl)cc3F)CC2)n1", "note": "[Example 166, 4-[(4-chloro-2-fluoro-phenyl)methyl]-N-[3-(methylamino)-1,2,4-thiadiazol-5-yl]piperidine-1-carboxamide]", "IC50": 0.407}, {"compound": "Cc1nsc(NC(=O)N2CCC(=Cc3ccc(OCCCN)cc3F)CC2)n1", "note": "[Example 111]", "IC50": 0.514}, {"compound": "Cc1nsc(NC(=O)N2CCC(C(=O)c3ccc(C#N)cc3F)CC2)n1", "note": "[Example 171]", "IC50": 0.067}, {"compound": "Cc1nsc(NC(=O)N2CCC(Oc3ccc(F)cc3)CC2)n1", "note": "[Example 73]", "IC50": 0.465}, {"compound": "Cc1cc(NC(=O)N2CCC(=Cc3c(F)cc(C#N)cc3F)CC2)ccn1", "note": "[Example 175]", "IC50": 0.058}, {"compound": "Cc1nsc(NC(=O)N2CCC(=Cc3ccc(C#CCO)cc3F)CC2)n1", "note": "[Example 170, 4-[[2-fluoro-4-(3-hydroxyprop-1-ynyl)phenyl]methylene]-N-(3-methyl-1,2,4-thiadiazol-5-yl)piperidine-1-carboxamide]", "IC50": 0.415}, {"compound": "COc1ccc(CC2CCN(C(=O)Nc3nc(C)ns3)CC2)c(N)c1", "note": "[Example 23]", "IC50": 0.356}, {"compound": "Cc1nsc(NC(=O)N2CCC(C(=O)c3ccc(C(F)(F)F)cc3F)CC2)n1", "note": "[Example 142, 4-[2-fluoro-4-(trifluoromethyl)benzoyl]-N-(3-methyl-1,2,4-thiadiazol-5-yl)piperidine-1-carboxamide]", "IC50": 0.086}, {"compound": "Cc1nsc(NC(=O)N2CC/C(=C\\c3c(F)cc(Cl)cc3F)CC2(C)C)n1", "note": "[Example 168]", "IC50": 0.28}, {"compound": "Cc1cc(NC(=O)N2CCC(C(=O)c3ccc(N(C)C)cc3F)CC2)ccn1", "note": "[Example 156]", "IC50": 0.193}, {"compound": "Cc1nsc(NC(=O)N2CCC(=Cc3c(F)cc(O)cc3F)CC2)n1", "note": "[Example 99, 4-[(2,6-difluoro-4-hydroxy-phenyl)methylene]-N-(3-methyl-1,2,4-thiadiazol-5-yl)piperidine-1-carboxamide]", "IC50": 0.307}, {"compound": "Cc1nsc(NC(=O)N2CCC(=Cc3ccc(N(C)CCCN)cc3F)CC2)n1", "note": "[Example 124]", "IC50": 0.07}, {"compound": "Cc1nsc(NC(=O)N2CCC(=Cc3ccc(OCCCO)cc3F)CC2)n1", "note": "[Example 107, 4-[[2-fluoro-4-(3-hydroxypropoxy)phenyl]methylene]-N-(3-methyl-1,2,4-thiadiazol-5-yl)piperidine-1-carboxamide]", "IC50": 0.389}, {"compound": "Cc1cc(NC(=O)N2CCC(C(=O)c3ccc(C#N)cc3F)CC2)ccn1", "note": "[Example 172]", "IC50": 0.126}, {"compound": "Cc1nsc(NC(=O)N2CCC(=Cc3ccc(C=O)cc3F)CC2)n1", "note": "[Example 88, 4-[(2-fluoro-4-formyl-phenyl)methylene]-N-(3-methyl-1,2,4-thiadiazol-5-yl)piperidine-1-carboxamide]", "IC50": 0.418}, {"compound": "Cc1nsc(NC(=O)N2CCC(=Cc3ccc(N4CCCC4)cc3)CC2)n1", "note": "[Example 43]", "IC50": 0.439}, {"compound": "O=C(Nc1ccnc(CO)c1)N1CCC(=Cc2ccc(Cl)cc2F)CC1", "note": "[Example 177, 4-[(4-chloro-2-fluoro-phenyl)methylene]-N-[2-(hydroxymethyl)-4-pyridyl]piperidine-1-carboxamide]", "IC50": 0.096}, {"compound": "CC(=O)NCCN(C)c1ccc(C=C2CCN(C(=O)Nc3nc(C)ns3)CC2)c(F)c1", "note": "[Example 123, 4-[[4-[2-acetamidoethyl(methyl)amino]-2-fluoro-phenyl]methylene]-N-(3-methyl-1,2,4-thiadiazol-5-yl)piperidine-1-carboxamide]", "IC50": 0.245}, {"compound": "CCN(CC)c1cc(F)c(C=C2CCN(C(=O)Nc3nc(C)ns3)CC2)c(F)c1", "note": "[Example 159]", "IC50": 0.215}, {"compound": "Cc1nsc(NC(=O)N2CC/C(=C/c3c(F)cc(Cl)cc3F)CC2(C)C)n1", "note": "[Example 169]", "IC50": 0.432}, {"compound": "Cc1nsc(NC(=O)N2CCC(C(=O)c3ccc(N(C)C)cc3F)CC2)n1", "note": "[Example 155, 4-[4-(dimethylamino)-2-fluoro-benzoyl]-N-(3-methyl-1,2,4-thiadiazol-5-yl)piperidine-1-carboxamide]", "IC50": 0.149}, {"compound": "Cc1nsc(NC(=O)N2CCC(Cc3ccc(N4CCCC4)cc3F)CC2)n1", "note": "[Example 44]", "IC50": 0.429}, {"compound": "Cc1nsc(NC(=O)N2CCC(Cc3ccc(N4CCCC4)cc3)CC2)n1", "note": "[Example 42]", "IC50": 0.67}, {"compound": "Cc1nsc(NC(=O)N2CCC(=Cc3ccc(CNCCCN4CCOCC4)cc3F)CC2)n1", "note": "[Example 91]", "IC50": 0.492}, {"compound": "Cc1nsc(NC(=O)N2CCC(Cc3ccc(CN4CCOCC4)cc3)CC2)n1", "note": "[Example 34, N-(3-methyl-1,2,4-thiadiazol-5-yl)-4-[[4-(morpholinomethyl)phenyl]methyl]piperidine-1-carboxamide]", "IC50": 0.572}, {"compound": "NC(=O)Cc1nsc(NC(=O)N2CCC(=Cc3ccc(Cl)cc3F)CC2)n1", "note": "[Example 81, N-[3-(2-amino-2-oxo-ethyl)-1,2,4-thiadiazol-5-yl]-4-[(4-chloro-2-fluoro-phenyl)methylene]piperidine-1-carboxamide]", "IC50": 0.888}, {"compound": "CC(=C1CCN(C(=O)Nc2nc(C)ns2)CC1)c1ccc(Cl)cc1F", "note": "[Example 104]", "IC50": 0.642}, {"compound": "Cc1cc(NC(=O)N2CCC(=Cc3ccc(N(C)C)cc3F)CC2)ccn1", "note": "[Example 132]", "IC50": 0.076}, {"compound": "Cc1nsc(NC(=O)N2CCN(Cc3ccc(Cl)cc3F)CC(O)C2)n1", "note": "(stereo not drawn) [Example 162]", "IC50": 0.162}, {"compound": "Cc1nsc(NC(=O)N2CCC(=Cc3ccc(N)cc3F)CC2)n1", "note": "[Example 119, 4-[(4-amino-2-fluoro-phenyl)methylene]-N-(3-methyl-1,2,4-thiadiazol-5-yl)piperidine-1-carboxamide]", "IC50": 0.159}, {"compound": "NCc1cc(NC(=O)N2CCC(=Cc3c(F)cc(Cl)cc3F)CC2)ccn1", "note": "[Example 180, N-[2-(aminomethyl)-4-pyridyl]-4-[(4-chloro-2,6-difluoro-phenyl)methylene]piperidine-1-carboxamide]", "IC50": 0.33}, {"compound": "Cc1nsc(NC(=O)N2CCC(Cc3ccc(C(N)=O)cc3F)CC2)n1", "note": "[Example 37, 4-[(4-carbamoyl-2-fluoro-phenyl)methyl]-N-(3-methyl-1,2,4-thiadiazol-5-yl)piperidine-1-carboxamide]", "IC50": 0.478}, {"compound": "N#CCc1cc(NC(=O)N2CCC(=Cc3ccc(Cl)cc3F)CC2)ccn1", "note": "[Example 178, 4-[(4-chloro-2-fluoro-phenyl)methylene]-N-[2-(cyanomethyl)-4-pyridyl]piperidine-1-carboxamide]", "IC50": 0.155}, {"compound": "Cc1nsc(NC(=O)N2CCCC(=Cc3ccc(N(C)C)cc3F)CC2)n1", "note": "[Example 125]", "IC50": 0.063}]}]}
